Biological target: human PDE10A (Homo sapiens (Human), UniProt Q9Y233)
Experiment: human PDE10A full length Scintillation Proximity Assay (SPA)
Format: biochemical
Conditions: 50 nM cGMP and 50 nM [3H]-cGMP, 20 minutes at room temperature, read-out: PDE10A inhibition IC50
Procedure: The following test was carried out in order to determine the activity of the compounds of the present invention. PDE10 activity of the compounds of the present invention was determined using a Scintillation Proximity Assay (SPA)-based method similar to the one previously described (Fawcett, L. et al., Proc Natl Acad Sci USA (2000) 97(7):3702-3707).
The human PDE10A full length assay was performed in 96-well micro titer plates. The reaction mixture of 50 μl contained 20 mM HEPES pH=7.5/10 mM MgCl2/0.05 mg/ml BSA (Sigma cat. # A-7906), 50 nM cGMP (Sigma, cat. # G6129) and 50 nM [^3H]-cGMP (GE Healthcare, cat. # TRK392 S.A. 13.2Ci/mmol), 3.75 ng/well PDE10A enzyme (Enzo Life Science, Lausen, Switzerland cat # SE-534) with or without a specific test compound. A range of concentrations of the potential inhibitor was used to generate data for calculating the concentration of inhibitor resulting in 50% of the effect (e.g. IC50, the concentration of the competitor inhibiting PDE10A activity by 50%). Non-specific activity was tested without the enzyme. The reaction was initiated by the addition of the substrate solution (cGMP and [^3H]-cGMP) and allowed to progress for 20 minutes at room temperature. The reaction was terminated by adding 25 μA of YSi-SPA scintillation beads (GE Healthcare, cat. # RPNQ0150) in 18 mM zinc sulphate solution (stop reagent). After 1 h under shaking, the plate was centrifuged one minute at 170 g to allow beads to settle. Afterwards, radioactive counts were measured on a Perkin Elmer TopCount Scintillation plate reader.

Sequence of human PDE10A (Q9Y233 other isoform, or with tags, fused parts or gaps): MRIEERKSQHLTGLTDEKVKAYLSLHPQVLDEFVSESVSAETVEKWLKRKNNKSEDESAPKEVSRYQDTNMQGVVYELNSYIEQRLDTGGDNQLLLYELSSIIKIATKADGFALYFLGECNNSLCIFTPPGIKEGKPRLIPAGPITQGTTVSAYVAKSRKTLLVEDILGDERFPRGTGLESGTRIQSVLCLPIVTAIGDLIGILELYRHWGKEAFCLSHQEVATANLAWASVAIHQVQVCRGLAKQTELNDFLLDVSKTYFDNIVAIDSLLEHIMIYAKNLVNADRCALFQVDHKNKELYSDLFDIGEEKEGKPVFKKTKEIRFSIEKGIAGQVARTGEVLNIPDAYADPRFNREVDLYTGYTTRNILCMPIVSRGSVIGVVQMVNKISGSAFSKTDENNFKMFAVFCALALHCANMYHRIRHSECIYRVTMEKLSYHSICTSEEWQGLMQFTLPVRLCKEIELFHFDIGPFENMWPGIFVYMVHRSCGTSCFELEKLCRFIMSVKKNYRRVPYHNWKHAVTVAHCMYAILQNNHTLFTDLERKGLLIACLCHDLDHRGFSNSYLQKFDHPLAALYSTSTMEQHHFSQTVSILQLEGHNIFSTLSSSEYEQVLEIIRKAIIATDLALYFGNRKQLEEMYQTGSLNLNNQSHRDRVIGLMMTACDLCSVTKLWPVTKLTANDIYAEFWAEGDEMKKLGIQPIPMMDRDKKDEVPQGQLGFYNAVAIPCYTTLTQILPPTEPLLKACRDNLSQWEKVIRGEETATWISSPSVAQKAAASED

Structure (SMILES)	IC50
Cc1ccc(Nc2cncnc2)c(C(=O)Nc2ccn(-c3ccccc3)n2)n1 [Example 1, 6-Methyl-3-(pyrimidin-5-ylamino)-pyridine-2-carboxylic acid (1-phenyl-1H-pyrazol-3-yl)-amide]	90 nM
Cc1ccc(Nc2cncnc2)c(C(=O)Nc2ccn(-c3ccccn3)n2)n1 [Example 4, 6-Methyl-3-(pyrimidin-5-ylamino)-pyridine-2-carboxylic acid (1-pyridin-2-yl-1H-pyrazol-3-yl)-amide]	368 nM
Cc1ccc(Nc2cncnc2)c(C(=O)Nc2ccn(-c3ccncc3)n2)n1 [Example 5, 6-Methyl-3-(pyrimidin-5-ylamino)-pyridine-2-carboxylic acid (1-pyridin-4-yl-1H-pyrazol-3-yl)-amide]	48 nM
O=C(Nc1ccn(-c2ccc(F)cc2)n1)c1nc(C2CC2)ccc1Nc1cncnc1 [Example 6, 6-Cyclopropyl-3-(pyrimidin-5-ylamino)-pyridine-2-carboxylic acid [1-(4-fluoro-phenyl)-1H-pyrazol-3-yl]-amide]	23 nM
O=C(Nc1ccn(-c2ccncc2)n1)c1nc(C2CC2)ccc1Nc1cncnc1 [Example 7, 6-Cyclopropyl-3-(pyrimidin-5-ylamino)-pyridine-2-carboxylic acid (1-pyridin-4-yl-1H-pyrazol-3-yl)-amide]	10 nM
Cn1nc(-c2ccccn2)cc1NC(=O)c1nc(C2CC2)ccc1Nc1cncnc1 [Example 8, 6-Cyclopropyl-3-(pyrimidin-5-ylamino)-pyridine-2-carboxylic acid (2-methyl-5-pyridin-2-yl-2H-pyrazol-3-yl)-amide]	5 nM
O=C(Nc1cc(-c2ccccc2)nn1CCO)c1nc(C2CC2)ccc1Nc1cncnc1 [Example 9, 6-Cyclopropyl-3-(pyrimidin-5-ylamino)-pyridine-2-carboxylic acid [2-(2-hydroxy-ethyl)-5-phenyl-2H-pyrazol-3-yl]-amide]	122 nM
O=C(Nc1cc(-c2ccccn2)nn1CCO)c1nc(C2CC2)ccc1Nc1cncnc1 [Example 10, 6-Cyclopropyl-3-(pyrimidin-5-ylamino)-pyridine-2-carboxylic acid [2-(2-hydroxy-ethyl)-5-pyridin-2-yl-2H-pyrazol-3-yl]-amide]	2 nM

The remaining lines, values ahead:

IC50	Structure (SMILES)
5 nM	COCc1ccc(Nc2cncnc2)c(C(=O)Nc2cc(-c3ccccn3)nn2CCO)n1 [Example 11, 6-Methoxymethyl-3-(pyrimidin-5-ylamino)-pyridine-2-carboxylic acid [2-(2-hydroxy-ethyl)-5-pyridin-2-yl-2H-pyrazol-3-yl]-amide]
1 nM	CN(C)CCn1nc(-c2ccccn2)cc1NC(=O)c1nc(C2CC2)ccc1Nc1cncnc1 [Example 12, 6-Cyclopropyl-3-(pyrimidin-5-ylamino)-pyridine-2-carboxylic acid [2-(2-dimethylamino-ethyl)-5-pyridin-2-yl-2H-pyrazol-3-yl]-amide]
256 nM	COCc1ncc(Nc2cncnc2)c(C(=O)Nc2cc(-c3ccccn3)nn2C)n1 [Example 13, 2-Methoxymethyl-5-(pyrimidin-5-ylamino)-pyrimidine-4-carboxylic acid (2-methyl-5-pyridin-2-yl-2H-pyrazol-3-yl)-amide]
1 nM	O=C(Nc1cc(-c2ccccn2)nn1C1CCCCC1)c1nc(C2CC2)ccc1Nc1cncnc1 [Example 14, 6-Cyclopropyl-3-(pyrimidin-5-ylamino)-pyridine-2-carboxylic acid (2-cyclohexyl-5-pyridin-2-yl-2H-pyrazol-3-yl)-amide]
4 nM	CCOC(=O)Cn1nc(-c2ccccn2)cc1NC(=O)c1nc(C2CC2)ccc1Nc1cncnc1 [Example 15, (5-{[6-Cyclopropyl-3-(pyrimidin-5-ylamino)-pyridine-2-carbonyl]-amino}-3-pyridin-2-yl-pyrazol-1-yl)-acetic acid ethyl ester]
2 nM	O=C(Nc1cc(-c2ccccn2)nn1CCN1CCOCC1)c1nc(C2CC2)ccc1Nc1cncnc1 [Example 16, 6-Cyclopropyl-3-(pyrimidin-5-ylamino)-pyridine-2-carboxylic acid [2-(2-morpholin-4-yl-ethyl)-5-pyridin-2-yl-2H-pyrazol-3-yl]-amide]
